Results taken from ChEMBL document CHEMBL3885861, “Open TG-GATES”.

Organism: Rattus norvegicus
Test: Open TG-GATES - Regimen: Daily Repeat
Assay type: toxicity, organism-based, Sprague-Dawley
Design: regimen Daily Repeat, gender Male, age 6 weeks
Conditions: in vivo, po, 100 mg/kg, route gavage, dose level High; for APTT / Bas / Eos / Fbg / Hb / Ht / Lym / MCH / MCHC / MCV / Mono / Neu / PT / Plat / RBC / Ret / WBC: tissue Blood; for KIDNEY_L / KIDNEY_R / KIDNEY_TOTAL: tissue Kidney; for LIVER: tissue Liver; for A/G / ALP / ALT / AST / BUN / CRE / Ca / Cl / DBIL / GLC / IP / K / LDH / Na / PL / RALB / TBIL / TC / TG / TP / gamma-GTP: tissue Plasma

`CN(C)CCN(Cc1cccs1)c1ccccn1` was tested, and the TERMINAL_BW (72 h, time 3 day) was 205.4 g, the APTT (72 h, time 3 day) was 20.1 s and the Bas (72 h, time 3 day) was 0%. For the same compound, the Eos (72 h, time 3 day) was 1%, the Fbg (72 h, time 3 day) was 285.6 mg/dL and the Hb (72 h, time 3 day) was 13 g/dL. It also gave a Ht (72 h, time 3 day) of 38.7%, a Lym (72 h, time 3 day) of 75.2% and an MCH (72 h, time 3 day) of 20.8 pg. It also gave an MCHC (72 h, time 3 day) of 33.7%, an MCV (72 h, time 3 day) of 61.8 fL and a Mono (72 h, time 3 day) of 2.2%. The Neu (72 h, time 3 day) was 20.8%, the PT (72 h, time 3 day) was 15.9 s and the Plat (72 h, time 3 day) was 132.3 x10_4/uL. For the same compound, the RBC (72 h, time 3 day) was 626.8 x10_4/ul, the Ret (72 h, time 3 day) was 4.7% and the WBC (72 h, time 3 day) was 84.8 x10_2/uL. It also gave a KIDNEY_L (72 h, time 3 day) of 0.9 g, a KIDNEY_R (72 h, time 3 day) of 1 g and a KIDNEY_TOTAL (72 h, time 3 day) of 1.9 g. It also gave an LIVER (72 h, time 3 day) of 10.6 g, an A/G (72 h, time 3 day) of 1.2 and an ALP (72 h, time 3 day) of 1934 IU/L. For the same compound, the ALT (72 h, time 3 day) was 61.2 IU/L, the AST (72 h, time 3 day) was 106.4 IU/L and the BUN (72 h, time 3 day) was 16.6 mg/dL. The CRE (72 h, time 3 day) was 0.2 mg/dL, the Ca (72 h, time 3 day) was 10.9 mg/dL and the Cl (72 h, time 3 day) was 107 meq/L. The DBIL (72 h, time 3 day) was 0.01 mg/dL, the GLC (72 h, time 3 day) was 160.2 mg/dL and the IP (72 h, time 3 day) was 7.6 mg/dL. It also gave a K (72 h, time 3 day) of 4.4 meq/L, an LDH (72 h, time 3 day) of 202.2 IU/L and a Na (72 h, time 3 day) of 142.2 meq/L. It also gave a PL (72 h, time 3 day) of 161.2 mg/dL, an RALB (72 h, time 3 day) of 2.8 g/dL and a TBIL (72 h, time 3 day) of 0.028 mg/dL. The TC (72 h, time 3 day) was 91.8 mg/dL, the TG (72 h, time 3 day) was 49 mg/dL and the TP (72 h, time 3 day) was 5.2 g/dL. The gamma-GTP (72 h, time 3 day) was 2 IU/L, the TERMINAL_BW ([…], time 7 day) was 222.8 g and the TERMINAL_BW ([…], time 14 day) was 237.7 g. The TERMINAL_BW ([…], time 28 day) was 237.4 g, the APTT ([…], time 7 day) was 18.6 s and the Bas ([…], time 7 day) was 0%. For the same compound, the Eos ([…], time 7 day) was 0.6%, the Fbg ([…], time 7 day) was 247 mg/dL and the Hb ([…], time 7 day) was 14.2 g/dL. It also gave a Ht ([…], time 7 day) of 42.3%, a Lym ([…], time 7 day) of 80.4% and an MCH ([…], time 7 day) of 20.5 pg. For the same compound, the MCHC ([…], time 7 day) was 33.5%, the MCV ([…], time 7 day) was 61.2 fL and the Mono ([…], time 7 day) was 2.4%. For the same compound, the Neu ([…], time 7 day) was 15.4%, the PT ([…], time 7 day) was 15.9 s and the Plat ([…], time 7 day) was 123.2 x10_4/uL. It also gave an RBC ([…], time 7 day) of 691.6 x10_4/ul, a Ret ([…], time 7 day) of 3.7% and a WBC ([…], time 7 day) of 124.5 x10_2/uL. For the same compound, the APTT ([…], time 14 day) was 21.1 s, the Bas ([…], time 14 day) was 0% and the Eos ([…], time 14 day) was 0.2%. For the same compound, the Fbg ([…], time 14 day) was 177.8 mg/dL, the Hb ([…], time 14 day) was 15.1 g/dL and the Ht ([…], time 14 day) was 44.1%. It also gave a Lym ([…], time 14 day) of 74%, an MCH ([…], time 14 day) of 19.5 pg and an MCHC ([…], time 14 day) of 34.3%. It also gave an MCV ([…], time 14 day) of 56.9 fL, a Mono ([…], time 14 day) of 3.2% and a Neu ([…], time 14 day) of 21.4%. It also gave a PT ([…], time 14 day) of 18.3 s, a Plat ([…], time 14 day) of 117.4 x10_4/uL and an RBC ([…], time 14 day) of 775 x10_4/ul. It also gave a Ret ([…], time 14 day) of 2.4%, a WBC ([…], time 14 day) of 140.8 x10_2/uL and an APTT ([…], time 28 day) of 24.5 s. For the same compound, the Bas ([…], time 28 day) was 0%, the Eos ([…], time 28 day) was 0.5% and the Fbg ([…], time 28 day) was 140.8 mg/dL. For the same compound, the Hb ([…], time 28 day) was 16.7 g/dL, the Ht ([…], time 28 day) was 48.9% and the Lym ([…], time 28 day) was 53.8%. It also gave an MCH ([…], time 28 day) of 18.1 pg, an MCHC ([…], time 28 day) of 34.1% and an MCV ([…], time 28 day) of 53 fL. For the same compound, the Mono ([…], time 28 day) was 5%, the Neu ([…], time 28 day) was 39.8% and the PT ([…], time 28 day) was 20.1 s. It also gave a Plat ([…], time 28 day) of 79.2 x10_4/uL, an RBC ([…], time 28 day) of 924.8 x10_4/ul and a Ret ([…], time 28 day) of 2.1%. The WBC ([…], time 28 day) was 178.3 x10_2/uL, the KIDNEY_L ([…], time 7 day) was 1 g and the KIDNEY_R ([…], time 7 day) was 1 g. The KIDNEY_TOTAL ([…], time 7 day) was 2 g, the KIDNEY_L ([…], time 14 day) was 1.1 g and the KIDNEY_R ([…], time 14 day) was 1.1 g. The KIDNEY_TOTAL ([…], time 14 day) was 2.1 g, the KIDNEY_L ([…], time 28 day) was 1.1 g and the KIDNEY_R ([…], time 28 day) was 1.1 g. The KIDNEY_TOTAL ([…], time 28 day) was 2.2 g, the LIVER ([…], time 7 day) was 11.6 g and the LIVER ([…], time 14 day) was 10.6 g. The LIVER ([…], time 28 day) was 9.7 g, the A/G ([…], time 7 day) was 1.1 and the ALP ([…], time 7 day) was 2330.2 IU/L. It also gave an ALT ([…], time 7 day) of 145.2 IU/L, an AST ([…], time 7 day) of 324.2 IU/L and a BUN ([…], time 7 day) of 19 mg/dL. It also gave a CRE ([…], time 7 day) of 0.2 mg/dL, a Ca ([…], time 7 day) of 10.4 mg/dL and a Cl ([…], time 7 day) of 107.6 meq/L. For the same compound, the DBIL ([…], time 7 day) was 0.094 mg/dL, the GLC ([…], time 7 day) was 152.2 mg/dL and the IP ([…], time 7 day) was 8.7 mg/dL. For the same compound, the K ([…], time 7 day) was 4.6 meq/L, the LDH ([…], time 7 day) was 230.6 IU/L and the Na ([…], time 7 day) was 144 meq/L. The PL ([…], time 7 day) was 179 mg/dL, the RALB ([…], time 7 day) was 2.7 g/dL and the TBIL ([…], time 7 day) was 0.1 mg/dL. It also gave a TC ([…], time 7 day) of 100 mg/dL, a TG ([…], time 7 day) of 30.2 mg/dL and a TP ([…], time 7 day) of 5.2 g/dL. The gamma-GTP ([…], time 7 day) was 7 IU/L, the A/G ([…], time 14 day) was 1.1 and the ALP ([…], time 14 day) was 2530.2 IU/L. For the same compound, the ALT ([…], time 14 day) was 69 IU/L, the AST ([…], time 14 day) was 237.2 IU/L and the BUN ([…], time 14 day) was 16.6 mg/dL. It also gave a CRE ([…], time 14 day) of 0.2 mg/dL, a Ca ([…], time 14 day) of 9.7 mg/dL and a Cl ([…], time 14 day) of 106.8 meq/L. For the same compound, the DBIL ([…], time 14 day) was 0.3 mg/dL, the GLC ([…], time 14 day) was 135.6 mg/dL and the IP ([…], time 14 day) was 8.2 mg/dL. It also gave a K ([…], time 14 day) of 4.1 meq/L, an LDH ([…], time 14 day) of 250.8 IU/L and a Na ([…], time 14 day) of 141.8 meq/L. It also gave a PL ([…], time 14 day) of 126.4 mg/dL, an RALB ([…], time 14 day) of 2.5 g/dL and a TBIL ([…], time 14 day) of 0.3 mg/dL. It also gave a TC ([…], time 14 day) of 57.4 mg/dL, a TG ([…], time 14 day) of 22 mg/dL and a TP ([…], time 14 day) of 4.8 g/dL. For the same compound, the gamma-GTP ([…], time 14 day) was 6.6 IU/L, the A/G ([…], time 28 day) was 1 and the ALP ([…], time 28 day) was 1953.8 IU/L. It also gave an ALT ([…], time 28 day) of 94 IU/L, an AST ([…], time 28 day) of 418 IU/L and a BUN ([…], time 28 day) of 13.5 mg/dL. It also gave a CRE ([…], time 28 day) of 0.2 mg/dL, a Ca ([…], time 28 day) of 9.1 mg/dL and a Cl ([…], time 28 day) of 107.8 meq/L. It also gave a DBIL ([…], time 28 day) of 1 mg/dL, a GLC ([…], time 28 day) of 116.5 mg/dL and an IP ([…], time 28 day) of 7.6 mg/dL. The K ([…], time 28 day) was 3.9 meq/L, the LDH ([…], time 28 day) was 377.5 IU/L and the Na ([…], time 28 day) was 140.5 meq/L. The PL ([…], time 28 day) was 96.5 mg/dL, the RALB ([…], time 28 day) was 2 g/dL and the TBIL ([…], time 28 day) was 1 mg/dL. The TC ([…], time 28 day) was 38 mg/dL, the TG ([…], time 28 day) was 29.8 mg/dL and the TP ([…], time 28 day) was 4 g/dL. For the same compound, the gamma-GTP ([…], time 28 day) was 15.2 IU/L.
